Drawing on patent publication KR20150001353A, “Fms 키나아제 저해 활성을 갖는 피리미딘 유도체” (한미약품 주식회사, priority 2013, dated 2015), this text covers IC50 for two molecules.

The target in assay [1] is T1, recombinant human FMS kinase (재조합 인간 FMS 키나아제) (Homo sapiens, UniProt P07333).
T1 construct: purchased Invitrogen pv3249
Put plainly: FMS kinase inhibitory activity evaluation (Test Example 1; FRET, Z'-Lyte kinase assay-Tyr 1 peptide kit). The assay is classed as biochemical. The settings on record: 0.3 µg/mL FMS, 150 μM ATP, room temperature, 1 h.

The test system of assay [2] is M-NFS-60 cell line (M-NFS-60 세포주). Briefly: M-NFS-60 cell line evaluation (Test Example 2; MTT, CellTiter 96 Assay). The assay is classed as cell-based. The settings on record: recombinant M-CSF 20 ng/mL, 5% FBS, compound 10 μM to 0.1 nM, 590 nm.

T1 sequence (P07333 20-972): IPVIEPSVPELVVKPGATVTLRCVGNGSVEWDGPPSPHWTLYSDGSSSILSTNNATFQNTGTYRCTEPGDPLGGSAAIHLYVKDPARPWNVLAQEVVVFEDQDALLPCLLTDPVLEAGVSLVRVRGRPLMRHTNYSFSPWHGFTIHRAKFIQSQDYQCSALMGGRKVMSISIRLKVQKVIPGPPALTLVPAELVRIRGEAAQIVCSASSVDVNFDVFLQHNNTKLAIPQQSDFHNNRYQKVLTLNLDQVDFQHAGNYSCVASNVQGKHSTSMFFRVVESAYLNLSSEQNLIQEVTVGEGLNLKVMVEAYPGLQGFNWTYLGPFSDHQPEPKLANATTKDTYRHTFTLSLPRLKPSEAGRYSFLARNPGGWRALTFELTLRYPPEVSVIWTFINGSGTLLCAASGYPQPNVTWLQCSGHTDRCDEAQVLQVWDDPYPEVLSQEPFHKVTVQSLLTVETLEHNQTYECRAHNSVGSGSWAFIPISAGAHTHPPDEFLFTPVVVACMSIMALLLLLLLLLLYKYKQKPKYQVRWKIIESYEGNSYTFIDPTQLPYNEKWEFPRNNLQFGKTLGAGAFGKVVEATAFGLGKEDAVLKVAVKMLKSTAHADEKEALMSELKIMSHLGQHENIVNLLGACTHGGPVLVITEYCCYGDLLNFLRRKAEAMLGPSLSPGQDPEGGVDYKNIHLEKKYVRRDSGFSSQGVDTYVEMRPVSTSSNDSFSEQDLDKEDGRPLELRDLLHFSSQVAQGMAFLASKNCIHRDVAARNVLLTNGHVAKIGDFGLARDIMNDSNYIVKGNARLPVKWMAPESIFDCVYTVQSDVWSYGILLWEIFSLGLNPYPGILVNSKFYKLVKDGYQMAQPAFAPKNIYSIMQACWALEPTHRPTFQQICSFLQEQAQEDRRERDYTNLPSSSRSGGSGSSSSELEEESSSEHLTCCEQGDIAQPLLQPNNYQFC

A word on the IC50: it is the midpoint of a concentration-inhibition curve. On to `COc1ccc(CNc2cc(N(C)C(=O)Nc3cccc4c3c(C)nn4Cc3cccc(F)n3)ncn2)c(OC)c1` [실시예 9, 1-(6-(2,4-디메톡시벤질아미노)피리미딘-4-일)-3-(1-((6-플루오로피리딘-2-일)메틸)-3-메틸-1H-인다졸-4-일)-1-메틸우레아], for which, in assay [1], the IC50 amounted to 65 nM.

`COc1cccc(Cn2nc(C)c3c(NC(=O)N(C)c4cc(N)ncn4)cccc32)c1` [실시예 18, 1-(6-아미노피리미딘-4-일)-3-(1-(3-메톡시벤질)-3-메틸-1H-인다졸-4-일)-1-메틸우레아]: the IC50 in assay [1] came out at 14 nM; in assay [2], 201 nM.
